Reference: patent US9179694B2, “Method and composition for enhancing milk production and milk component concentrations” (PURINA ANIMAL NUTRITION LLC, priority 2003, dated 2015)
Marks after values point to notes of the source that are not given here.

Experiment: Lactose content of produced milk in sorbitol feeding trials
Type: in vivo, Holstein cows
Settings: for Lactose in Produced Milk: Pre-Partum Trial #1 (75/0/0 g/day in wk −3..−1/+1..+4/+5..+8)
Procedure: To determine the weight percent lactose, wet basis, in a liquid sample, the weight of the liquid sample is first determined. The actual weight of lactose in the liquid sample may then be determined using analysis kit number 176-303, that is available from Boehringer-Mannheim of Indianapolis, Ind. in accordance with the procedural instructions included with analysis kit number 176-303. The weight percent lactose, wet basis, in the liquid sample is then calculated by dividing the actual weight of lactose in the liquid sample by the actual weight of the liquid sample. Each cow of each of the six different trials (Control Trial #1, Control Trial #2, Pre-Partum Trial #1, Pre-Partum Trial #2, Pre/Post Trial #1, and Pre/Post Trial #2) was milked three times daily and the weight of produced milk by each cow was recorded at each milking. The milk from each cow was sampled once per week (⅓ of the sample volume from each of the three milkings occurring on the weekly milk sampling day) and was analyzed for true protein, total fat, lactose, and total solids, as detailed in the property determination and characterization techniques presented above. Additionally, samples of blood were periodically obtained from each cow during the four trials (Control Trial 2, Pre-Partum Trial #2, Pre/Post Trial #1, and Pre/Post Trial #2) encompassed in Example Two and were analyzed for non-esterified fatty acid (NEFA) content as detailed in the property determination and characterization techniques presented above. No NEFA analysis was conducted on the cows employed in Control Trial #1 or Pre-Partum Trial #1 that are the subject of Example One. Example One includes Control Trial #1 and Pre-Partum Trial #1. Both primiparious cows and multiparious cows were included in Control Trial #1 and Pre-Partum Trial #1. Five primiparious cows and fifteen multiparious cows were included in Control Trial #1; likewise, five primiparious cows and fifteen multiparious cows were included in Pre-Partum Trial #1. All cows included in Control Trial #1 and Pre-Partum Trial #1 were Holsteins. Example Two includes Control Trial #2, Pre-Partum Trial #2, Pre/Post Trial #1, and Pre/Post Trial #2. Only multiparious, Holstein cows were included in Control Trial #2, Pre-Partum Trial #1, Pre/Post Trial #1, and Pre/Post Trial #2. Eighteen multiparious cows were included in both Control Trial #2 and Pre-Partum Trial #2, while sixteen multiparious cows were included in Pre/Post Trial #1 and seventeen multiparious cows were included in Pre/Post Trial #2.

Structure (SMILES): OC[C@@H](O)[C@@H](O)[C@H](O)[C@@H](O)CO [sorbitol]
- Lactose in Produced Milk (multiparious cows, weeks +1 through +8): 4.77 wt %
- Lactose in Produced Milk (primiparious cows, weeks +1 through +8): 4.98 wt %
- increase in lactose concentration in the produced milk (Pre-Partum Trial #1 (75 g/day wk −3..−1 only) versus Control Trial #1, primiparious cows, weeks +1 through +8): 5.1%
- Lactose Content of Produced Milk (Pre-Partum Trial #2 (75/0/100 g/day in wk −3..−1/+1..+4/+5..+8), multiparious cows, week +1): 4.42 weight %
- Lactose Content of Produced Milk (Pre-Partum Trial #2 (75/0/100 g/day in wk −3..−1/+1..+4/+5..+8), multiparious cows, week +2): 4.69^a weight %
- Lactose Content of Produced Milk (Pre-Partum Trial #2 (75/0/100 g/day in wk −3..−1/+1..+4/+5..+8), multiparious cows, week +3): 4.74^a weight %
- Lactose Content of Produced Milk (Pre-Partum Trial #2 (75/0/100 g/day in wk −3..−1/+1..+4/+5..+8), multiparious cows, week +4): 4.75^a weight %
- Lactose Content of Produced Milk (Pre-Partum Trial #2 (75/0/100 g/day in wk −3..−1/+1..+4/+5..+8), multiparious cows, week +5): 4.74^a weight %
- Lactose Content of Produced Milk (Pre-Partum Trial #2 (75/0/100 g/day in wk −3..−1/+1..+4/+5..+8), multiparious cows, week +6): 4.75^a weight %
- Lactose Content of Produced Milk (Pre-Partum Trial #2 (75/0/100 g/day in wk −3..−1/+1..+4/+5..+8), multiparious cows, week +7): 4.77^a weight %
- Lactose Content of Produced Milk (Pre-Partum Trial #2 (75/0/100 g/day in wk −3..−1/+1..+4/+5..+8), multiparious cows, week +8): 4.76^a weight %
- Lactose Content of Produced Milk (Pre-Partum Trial #2 (75/0/100 g/day in wk −3..−1/+1..+4/+5..+8), multiparious cows, weeks +1 through +4): 4.65 weight %
- Lactose Content of Produced Milk (Pre-Partum Trial #2 (75/0/100 g/day in wk −3..−1/+1..+4/+5..+8), multiparious cows, weeks +5 through +8): 4.76^a weight %
- Lactose Content of Produced Milk (Pre/Post Trial #1 (150/125/100 g/day in wk −3..−1/+1..+4/+5..+8), multiparious cows, week +1): 4.55 weight %
- Lactose Content of Produced Milk (Pre/Post Trial #1 (150/125/100 g/day in wk −3..−1/+1..+4/+5..+8), multiparious cows, week +1, two-trial comparison with Control Trial #2 (Table 25)): 4.55 weight %
- Lactose Content of Produced Milk (Pre/Post Trial #1 (150/125/100 g/day in wk −3..−1/+1..+4/+5..+8), multiparious cows, week +2): 4.79^ab weight %
- Lactose Content of Produced Milk (Pre/Post Trial #1 (150/125/100 g/day in wk −3..−1/+1..+4/+5..+8), multiparious cows, week +2, two-trial comparison with Control Trial #2 (Table 25)): 4.79 weight %
- Lactose Content of Produced Milk (Pre/Post Trial #1 (150/125/100 g/day in wk −3..−1/+1..+4/+5..+8), multiparious cows, week +3): 4.87^ab weight %
- Lactose Content of Produced Milk (Pre/Post Trial #1 (150/125/100 g/day in wk −3..−1/+1..+4/+5..+8), multiparious cows, week +3, two-trial comparison with Control Trial #2 (Table 25)): 4.87 weight %
- Lactose Content of Produced Milk (Pre/Post Trial #1 (150/125/100 g/day in wk −3..−1/+1..+4/+5..+8), multiparious cows, week +4): 4.90^b weight %
- Lactose Content of Produced Milk (Pre/Post Trial #1 (150/125/100 g/day in wk −3..−1/+1..+4/+5..+8), multiparious cows, week +4, two-trial comparison with Control Trial #2 (Table 25)): 4.90 weight %
- Lactose Content of Produced Milk (Pre/Post Trial #1 (150/125/100 g/day in wk −3..−1/+1..+4/+5..+8), multiparious cows, week +5): 4.93^c weight %
- Lactose Content of Produced Milk (Pre/Post Trial #1 (150/125/100 g/day in wk −3..−1/+1..+4/+5..+8), multiparious cows, week +5, two-trial comparison with Control Trial #2 (Table 25)): 4.93 weight %
- Lactose Content of Produced Milk (Pre/Post Trial #1 (150/125/100 g/day in wk −3..−1/+1..+4/+5..+8), multiparious cows, week +6): 4.90^ab weight %
- Lactose Content of Produced Milk (Pre/Post Trial #1 (150/125/100 g/day in wk −3..−1/+1..+4/+5..+8), multiparious cows, week +6, two-trial comparison with Control Trial #2 (Table 25)): 4.90 weight %
- Lactose Content of Produced Milk (Pre/Post Trial #1 (150/125/100 g/day in wk −3..−1/+1..+4/+5..+8), multiparious cows, week +7): 4.90^ab weight %
- Lactose Content of Produced Milk (Pre/Post Trial #1 (150/125/100 g/day in wk −3..−1/+1..+4/+5..+8), multiparious cows, week +7, two-trial comparison with Control Trial #2 (Table 25)): 4.90 weight %
- Lactose Content of Produced Milk (Pre/Post Trial #1 (150/125/100 g/day in wk −3..−1/+1..+4/+5..+8), multiparious cows, week +8): 4.84^ab weight %
- Lactose Content of Produced Milk (Pre/Post Trial #1 (150/125/100 g/day in wk −3..−1/+1..+4/+5..+8), multiparious cows, week +8, two-trial comparison with Control Trial #2 (Table 25)): 4.84 weight %
- Lactose Content of Produced Milk (Pre/Post Trial #1 (150/125/100 g/day in wk −3..−1/+1..+4/+5..+8), multiparious cows, weeks +1 through +4): 4.78 weight %
- Lactose Content of Produced Milk (Pre/Post Trial #1 (150/125/100 g/day in wk −3..−1/+1..+4/+5..+8), multiparious cows, weeks +1 through +4, two-trial comparison with Control Trial #2 (Table 25)): 4.78 weight %
- Lactose Content of Produced Milk (Pre/Post Trial #1 (150/125/100 g/day in wk −3..−1/+1..+4/+5..+8), multiparious cows, weeks +1 through +8): 4.83^ab weight %
- Lactose Content of Produced Milk (Pre/Post Trial #1 (150/125/100 g/day in wk −3..−1/+1..+4/+5..+8), multiparious cows, weeks +1 through +8, two-trial comparison with Control Trial #2 (Table 25)): 4.83 weight %
- Lactose Content of Produced Milk (Pre/Post Trial #1 (150/125/100 g/day in wk −3..−1/+1..+4/+5..+8), multiparious cows, weeks +5 through +8): 4.89^ab weight %
- Lactose Content of Produced Milk (Pre/Post Trial #1 (150/125/100 g/day in wk −3..−1/+1..+4/+5..+8), multiparious cows, weeks +5 through +8, two-trial comparison with Control Trial #2 (Table 25)): 4.89 weight %
- increase in lactose concentration in milk (Pre/Post Trial #1 (150/125/100 g/day) versus Control Trial #2, multiparious cows, weeks +1 through +4 (Table 25)): more than 2.5%
- increase in lactose concentration in milk (Pre/Post Trial #1 (150/125/100 g/day) versus Control Trial #2, multiparious cows, weeks +1 through +8 (Table 25)): 1.9%
- increase in lactose concentration in milk (Pre/Post Trial #1 (150/125/100 g/day) versus Control Trial #2, multiparious cows, weeks +5 through +8 (Table 25)): more than 2.5%
- Lactose Content of Produced Milk (Pre/Post Trial #2 (75/75/100 g/day in wk −3..−1/+1..+4/+5..+8), multiparious cows, week +1): 4.47 weight %
- Lactose Content of Produced Milk (Pre/Post Trial #2 (75/75/100 g/day in wk −3..−1/+1..+4/+5..+8), multiparious cows, week +2): 4.84^b weight %
- Lactose Content of Produced Milk (Pre/Post Trial #2 (75/75/100 g/day in wk −3..−1/+1..+4/+5..+8), multiparious cows, week +3): 4.92^b weight %
- Lactose Content of Produced Milk (Pre/Post Trial #2 (75/75/100 g/day in wk −3..−1/+1..+4/+5..+8), multiparious cows, week +4): 4.90^b weight %
- Lactose Content of Produced Milk (Pre/Post Trial #2 (75/75/100 g/day in wk −3..−1/+1..+4/+5..+8), multiparious cows, week +5): 4.90^bc weight %
- Lactose Content of Produced Milk (Pre/Post Trial #2 (75/75/100 g/day in wk −3..−1/+1..+4/+5..+8), multiparious cows, week +6): 4.92^b weight %
- Lactose Content of Produced Milk (Pre/Post Trial #2 (75/75/100 g/day in wk −3..−1/+1..+4/+5..+8), multiparious cows, week +7): 4.96^b weight %
- Lactose Content of Produced Milk (Pre/Post Trial #2 (75/75/100 g/day in wk −3..−1/+1..+4/+5..+8), multiparious cows, week +8): 4.93^b weight %
- Lactose Content of Produced Milk (Pre/Post Trial #2 (75/75/100 g/day in wk −3..−1/+1..+4/+5..+8), multiparious cows, weeks +1 through +4): 4.78 weight %
- Lactose Content of Produced Milk (Pre/Post Trial #2 (75/75/100 g/day in wk −3..−1/+1..+4/+5..+8), multiparious cows, weeks +1 through +8): 4.85^b weight %
- greater lactose concentration in milk (Pre/Post Trial #2 (75/75/100 g/day) versus Pre-Partum Trial #2 (75/0/100 g/day), multiparious cows, weeks +1 through +8): 3.0%
- increase in lactose concentration in milk (average of means of Pre-Partum Trial #2, Pre/Post Trial #1 and Pre/Post Trial #2 versus Control Trial #2, multiparious cows, weeks +1 through +4): 1.7%
- increase in lactose concentration in milk (average of means of Pre-Partum Trial #2, Pre/Post Trial #1 and Pre/Post Trial #2 versus Control Trial #2, multiparious cows, weeks +1 through +8): 1.6%
